Consider 20 molecules from patent US10730874B2 (Shire Human Genetic Therapies, Inc., priority 2018, dated 2020).

pEC50: −log10 of the molar value. A value given as a limit tells only on which side of the number the result lay.

Broadly, the pEC50 is the EC50 on a negative log10 scale, so that one unit is a factor of ten.

The target of the first experiment is human activated kallikrein enzyme (plasma kallikrein) (Homo sapiens (Human), UniProt P03952). The experiment in a line: Inhibition of human activated plasma kallikrein, fluorogenic peptide substrate assay, 500 pM enzyme format. The class given is biochemical.
Sequence of human activated kallikrein enzyme (plasma kallikrein) (P03952 391-638): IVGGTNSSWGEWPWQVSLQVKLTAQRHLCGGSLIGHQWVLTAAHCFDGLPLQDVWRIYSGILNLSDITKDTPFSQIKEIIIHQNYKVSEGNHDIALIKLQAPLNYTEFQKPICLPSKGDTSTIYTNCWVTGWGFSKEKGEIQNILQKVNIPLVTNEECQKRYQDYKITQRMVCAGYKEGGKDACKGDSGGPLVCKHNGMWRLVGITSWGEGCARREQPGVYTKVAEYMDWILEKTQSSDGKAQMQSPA
Sequence of human activated kallikrein enzyme (plasma kallikrein) (P03952 20-390 partner): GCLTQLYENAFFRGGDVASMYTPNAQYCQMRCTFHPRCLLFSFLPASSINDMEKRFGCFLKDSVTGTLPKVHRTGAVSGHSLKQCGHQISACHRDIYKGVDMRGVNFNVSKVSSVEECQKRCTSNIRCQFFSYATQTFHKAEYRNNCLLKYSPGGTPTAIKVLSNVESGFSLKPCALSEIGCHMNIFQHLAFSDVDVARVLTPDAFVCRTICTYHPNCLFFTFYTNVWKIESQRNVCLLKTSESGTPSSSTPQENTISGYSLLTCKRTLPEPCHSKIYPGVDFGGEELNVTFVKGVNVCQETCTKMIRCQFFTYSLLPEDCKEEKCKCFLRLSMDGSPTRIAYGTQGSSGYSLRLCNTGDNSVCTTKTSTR
Conditions: not given
The essentials: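 Buffer 20 mM Tris pH 7.5, EDTA, NaCl, PEG-400, Triton X-100; 300 uM Pro-Phe-Arg-AMC; enzyme–inhibitor preincubation 30 min RT. Format one: 500 pM kallikrein, 10 min RT reaction; format two: 5 pM kallikrein, 18 h RT reaction. Fluorescence read at 460 nm (380 nm excitation).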
Consider `O=C(NCc1ncn2ccc(Br)cc12)c1cn(Cc2cn3cc(C4CC4)ccc3n2)c2cccnc12` [Example I-30, N-((7-bromoimidazo[1,5-a]pyridin-1-yl)methyl)-1-((6-cyclopropylimidazo[1,2-a]pyridin-2-yl)methyl)-1H-pyrrolo[3,2-b]pyridine-3-carboxamide], for which the pEC50 is 8.00 to 9.00.

Staying with this experiment, now noted: 500 pM activated kallikrein enzyme, 300 uM Pro-Phe-Arg-7-amido-4-methylcoumarin substrate, 30 min preincubation, 10 min at RT; read-out: Primary Dose Response Assay: Average EC50.
As to `N#Cc1cc(C2CC2)cn2cc(Cn3cc(C(=O)NCc4ncn5ccc(Cl)c(F)c45)nn3)nc12` [Example I-149, N-((7-chloro-8-fluoroimidazo[1,5-a]pyridin-1-yl)methyl)-1-((8-cyano-6-cyclopropylimidazo[1,2-a]pyridin-2-yl)methyl)-1H-1,2,3-triazole-4-carboxamide], the pEC50 is greater than 9.00.

For `O=C(NCc1ncn2ccc(Cl)cc12)c1nnc(Cc2cn3cc(C4CC4)ccc3n2)s1` [Example I-70, N-((7-chloroimidazo[1,5-a]pyridin-1-yl)methyl)-5-((6-cyclopropylimidazo[1,2-a]pyridin-2-yl)methyl)-1,3,4-thiadiazole-2-carboxamide], the pEC50 was 7.00 to 8.00.

With `Cc1cc2nc(Cn3cc(C(=O)NCc4ncn5ccc(Br)cc45)cn3)cn2cc1C1CC1` [Example I-17, N-((7-bromoimidazo[1,5-a]pyridin-1-yl)methyl)-1-((6-cyclopropyl-7-methylimidazo[1,2-a]pyridin-2-yl)methyl)-1H-pyrazole-4-carboxamide], the negative-log EC50 (pEC50) is 8.00 to 9.00.

Take `COc1cccc2nc(Cn3cc(C(=O)NCc4ncn5ccc(Cl)cc45)cn3)cn12` [Example I-63, N-((7-chloroimidazo[1,5-a]pyridin-1-yl)methyl)-1-((5-methoxyimidazo[1,2-a]pyridin-2-yl)methyl)-1H-pyrazole-4-carboxamide]: the negative-log EC50 (pEC50) is 7.00 to 8.00.

On to `O=C(NCc1ncn2ccc(Cl)c(F)c12)c1cn(Cc2cc3ccc(Cl)cc3o2)nn1` [Example I-197, N-((7-chloro-8-fluoroimidazo[1,5-a]pyridin-1-yl)methyl)-1-((6-chlorobenzofuran-2-yl)methyl)-1H-1,2,3-triazole-4-carboxamide], for which the pEC50 is 5.70 to 7.00.

As to `O=C(O)Cc1cc(C2CC2)cn2cc(Cn3cc(C(=O)NCc4ncn5ccc(Cl)c(F)c45)nn3)nc12` [Example I-157b, 2-(2-((4-(((7-chloro-8-fluoroimidazo[1,5-a]pyridin-1-yl)methyl)carbamoyl)-1H-1,2,3-triazol-1-yl)methyl)-6-cyclopropylimidazo[1,2-a]pyridin-8-yl)acetic acid], the pEC50 was greater than 9.00.

For the molecule `O=C(NCc1ncn2ccc(Br)cc12)c1cnn(Cc2cn3cc(C4CC4)cnc3n2)c1` [Example I-76, N-((7-bromoimidazo[1,5-a]pyridin-1-yl)methyl)-1-((6-cyclopropylimidazo[1,2-a]pyrimidin-2-yl)methyl)-1H-pyrazole-4-carboxamide], the pEC50 is greater than 9.00.

As for `O=C(NCc1ncn2ccc(Br)cc12)c1cnn(Cc2cn3c(Cl)c(Br)ccc3n2)c1` [Example I-40, 1-((6-bromo-5-chloroimidazo[1,2-a]pyridin-2-yl)methyl)-N-((7-bromoimidazo[1,5-a]pyridin-1-yl)methyl)-1H-pyrazole-4-carboxamide], the pEC50 is greater than 9.00.

For the molecule `NC(=O)CCc1cc(C2CC2)cn2cc(Cn3cc(C(=O)NCc4ncn5ccc(Cl)cc45)nn3)nc12` [Example I-183, 1-((8-(3-amino-3-oxopropyl)-6-cyclopropylimidazo[1,2-a]pyridin-2-yl)methyl)-N-((7-chloroimidazo[1,5-a]pyridin-1-yl)methyl)-1H-1,2,3-triazole-4-carboxamide], the pEC50 is greater than 9.00.

Regarding `CC1(c2ccc3nc(Cn4cc(C(=O)NCc5ncn6ccc(Cl)cc56)cn4)cn3c2)CC1` [Example I-10, N-((7-chloroimidazo[1,5-a]pyridin-1-yl)methyl)-1-((6-(1-methylcyclopropyl)imidazo[1,2-a]pyridin-2-yl)methyl)-1H-pyrazole-4-carboxamide], the pEC50 is greater than 9.00.

In the case of `CCOC(=O)C(C)(C)Cc1cc(C2CC2)cn2cc(Cn3cc(C(=O)NCc4ncn5ccc(Cl)cc45)nn3)nc12` [Example I-168, ethyl 3-(2-((4-(((7-chloroimidazo[1,5-a]pyridin-1-yl)methyl)carbamoyl)-1H-1,2,3-triazol-1-yl)methyl)-6-cyclopropylimidazo[1,2-a]pyridin-8-yl)-2,2-dimethylpropanoate], the pEC50 was greater than 9.00.

Regarding `COC(=O)c1cc(C(=O)NCc2ncn3ccc(Cl)c(F)c23)cn1Cc1cn2cc(C3CC3)ccc2n1` [Example I-270a, methyl 4-(((7-chloro-8-fluoroimidazo[1,5-a]pyridin-1-yl)methyl)carbamoyl)-1-((6-cyclopropylimidazo[1,2-a]pyridin-2-yl)methyl)-1H-pyrrole-2-carboxylate], the pEC50 was 8.00 to 9.00.

In the case of `O=C(NCc1ncn2ccc(Cl)c(F)c12)c1cn(Cc2cn3cc(C4CC4)cc(N4CCCC4=O)c3n2)nn1` [Example I-203, N-((7-chloro-8-fluoroimidazo[1,5-a]pyridin-1-yl)methyl)-1-((6-cyclopropyl-8-(2-oxopyrrolidin-1-yl)imidazo[1,2-a]pyridin-2-yl)methyl)-1H-1,2,3-triazole-4-carboxamide], the negative logarithm of the EC50 (pEC50) was greater than 9.00.

Consider `O=C(NCc1ncn2ccc(Cl)c(F)c12)c1nnc(Cc2cn3nc(C4CC4)ccc3n2)o1` [Example I-156, N-((7-chloro-8-fluoroimidazo[1,5-a]pyridin-1-yl)methyl)-5-((6-cyclopropylimidazo[1,2-b]pyridazin-2-yl)methyl)-1,3,4-oxadiazole-2-carboxamide], for which the pEC50 was greater than 9.00.

For `CC1CC1c1ccc2nc(Cn3cc(C(=O)NCc4ncn5ccc(Cl)cc45)cn3)cn2c1` (centres unmarked) [Example I-43, N-((7-chloroimidazo[1,5-a]pyridin-1-yl)methyl)-1-((6-(2-methylcyclopropyl)imidazo[1,2-a]pyridin-2-yl)methyl)-1H-pyrazole-4-carboxamide], the pEC50 was greater than 9.00.

For `N#Cc1cc(Cn2cc(C(=O)NCc3ncn4ccc(Cl)c(F)c34)nn2)cc2cc(C3CC3)cnc12` [Example I-273, N-((7-chloro-8-fluoroimidazo[1,5-a]pyridin-1-yl)methyl)-1-((8-cyano-3-cyclopropylquinolin-6-yl)methyl)-1H-1,2,3-triazole-4-carboxamide], the pEC50 is 8.00 to 9.00.

As to `CCOC(=O)C=Cc1cc(C2CC2)cn2cc(Cn3cc(C(=O)NCc4ncn5ccc(Cl)cc45)cn3)nc12` [Example I-100a, ethyl 3-(2-((4-(((7-chloroimidazo[1,5-a]pyridin-1-yl)methyl)carbamoyl)-1H-pyrazol-1-yl)methyl)-6-cyclopropylimidazo[1,2-a]pyridin-8-yl)acrylate], the pEC50 is greater than 9.00.

`N#Cc1cccc2nc(Cn3cc(C(=O)NCc4ncn5ccc(Br)cc45)cn3)cn12` [Example I-55, N-((7-bromoimidazo[1,5-a]pyridin-1-yl)methyl)-1-((5-cyanoimidazo[1,2-a]pyridin-2-yl)methyl)-1H-pyrazole-4-carboxamide]: the pEC50 was 7.00 to 8.00.

Still in this experiment, the particulars now being: comparative compounds (Table II); assay format with 500 pM (500 μM in the source) activated kallikrein; read-out: Primary Dose Response Assay: Average EC50.
For `O=C(NCc1nnc2ccc(Cl)cn12)c1cnn(Cc2cn3cc(C4CC4)ccc3n2)c1` [reference compound], the pEC50 was 5.70 to 7.00.
